Data: ChEMBL document CHEMBL1152566, “Synthesis and activity of azaterphenyl diamidines against Trypanosoma brucei rhodesiense and Plasmodium falciparum” (Bioorg Med Chem, 2009)
pIC50: −log10 of the molar value. Calls of active or inactive are those of the source. The calls are words filed in the database; no cut-off is given here.

Key:
[1] = tested on: Trypanosoma brucei rhodesiense; assay: Antitrypanosomal activity against Trypanosoma brucei rhodesiense STIB900; type: functional, organism-based
Plasmodium falciparum = assay: Antiplasmodial activity against Plasmodium falciparum K1; type: functional, organism-based
[2] = tested on: Trypanosoma brucei rhodesiense; assay: Antitrypanosomal activity against Trypanosoma brucei rhodesiense STIB900 infected in NMRI mouse assessed as survival days at 5 mg/kg, ip; type: functional; conditions: route intraperitoneal
[3] = tested on: Trypanosoma brucei rhodesiense; assay: Antitrypanosomal activity against Trypanosoma brucei rhodesiense STIB900 infected in NMRI mouse assessed as survival at 5 mg/kg, ip; type: functional, organism-based; parameters: dose 5 mg/kg
[4] = tested on: Trypanosoma brucei rhodesiense; conditions: dose 20 mg/kg; route intraperitoneal
Description: Antitrypanosomal activity against Trypanosoma brucei rhodesiense STIB900 infected in NMRI mouse assessed as survival days at 20 mg/kg, ip

[5] = tested on: Trypanosoma brucei rhodesiense; assay: Antitrypanosomal activity against Trypanosoma brucei rhodesiense STIB900 infected in NMRI mouse assessed as survival at 20 mg/kg, ip; type: functional, organism-based; parameters: dose 20 mg/kg

Structure (SMILES) | pIC50 [1] | pIC50 (Plasmodium falciparum) | Survival [2] [days] | Activity [3] | Survival [4] [days] | Activity [5]
N=C(N)c1ccc(-c2ccc(-c3ccc(C(=N)N)nc3)cn2)cc1 | 8.22 | 8.96 | >60 | – | – | –
N=C(N)c1ccc(-c2cnc(-c3ccc(C(=N)N)cc3)nc2)cc1 | – | – | 23.5 | inactive | – | –
N=C(N)c1ccc(-c2cnc(-c3ccc(C(=N)N)cc3)cn2)cc1 | 7.74 | 9.40 | 36.5 | inactive | – | –
N=C(N)c1ccc(-c2ccc(-c3ccc(C(=N)N)cc3)cc2)cc1 | 8.30 | 8.85 | – | – | >47.75 | –
N=C(N)c1ccc(-c2ccc(-c3ccc(C(=N)N)cn3)o2)cc1 | – | – | >54.5 | – | >60 | Active
N=C(N)c1ccc(-c2ccc(-c3ccc(C(=N)N)cc3)nc2)cc1 | 8.70 | 8.00 | >42 | – | – | –
N=C(N)c1ccc(-c2ccc(-c3ccc(C(=N)N)cc3)nn2)cc1 | 7.85 | 8.89 | >49.25 | – | – | –
N=C(N)c1ccc(-c2ccc(-c3ccc(C(=N)N)nc3)cc2)cn1 | – | – | >51.5 | inactive | – | –
N=C(N)c1ccc(-c2ccc(-c3ccc(C(=N)N)cc3)o2)cc1 [FURAMIDINE] | – | – | >46 | – | >57.75 | –
N=C(N)c1ncc(-c2ccc(-c3cnc(C(=N)N)nc3)cc2)cn1 | 8.22 | 9.22 | >43.25 | – | – | –
N=C(N)c1ccc(-c2ccc(-c3ccc(C(=N)N)cn3)cc2)cc1 | – | 8.89 | >56 | – | – | –
N=C(N)c1ccc(-c2ccc(-c3cnc(C(=N)N)cn3)cn2)cc1 | – | 8.24 | >31.75 | – | – | –
N=C(N)c1ccc(-c2ccc(-c3ccc(C(=N)N)cn3)cn2)cc1 | – | 8.60 | >60 | – | – | –
N=C(N)c1ccc(-c2ccc(-c3cnc(C(=N)N)nc3)cn2)cc1 | 7.92 | 8.82 | >43.25 | inactive | – | –
N=C(N)c1ccc(-c2ccc(-c3ccc(C(=N)N)nc3)cc2)cc1 | – | – | >48.75 | inactive | – | –
N=C(N)c1ccc(-c2ccc(-c3ccc(C(=N)N)cn3)cc2)nc1 | 7.33 | 8.00 | >60 | – | – | –
N=C(N)c1ccc(-c2ccc(-c3cnc(C(=N)N)nc3)cc2)cc1 | 8.40 | 9.22 | >46.25 | – | – | –
